We go through 42 molecules from patent publication US10851096B2, “Aryl and heteroaryl amides for use as anti-proliferative, anti-thrombotic, and anti-viral agents” (Rutgers, The State University of New Jersey, priority 2016, dated 2020).

For the first assay, the target named is T1, Tyro3 (Homo sapiens, UniProt Q06418).
T1 sequence (Q06418 41-890): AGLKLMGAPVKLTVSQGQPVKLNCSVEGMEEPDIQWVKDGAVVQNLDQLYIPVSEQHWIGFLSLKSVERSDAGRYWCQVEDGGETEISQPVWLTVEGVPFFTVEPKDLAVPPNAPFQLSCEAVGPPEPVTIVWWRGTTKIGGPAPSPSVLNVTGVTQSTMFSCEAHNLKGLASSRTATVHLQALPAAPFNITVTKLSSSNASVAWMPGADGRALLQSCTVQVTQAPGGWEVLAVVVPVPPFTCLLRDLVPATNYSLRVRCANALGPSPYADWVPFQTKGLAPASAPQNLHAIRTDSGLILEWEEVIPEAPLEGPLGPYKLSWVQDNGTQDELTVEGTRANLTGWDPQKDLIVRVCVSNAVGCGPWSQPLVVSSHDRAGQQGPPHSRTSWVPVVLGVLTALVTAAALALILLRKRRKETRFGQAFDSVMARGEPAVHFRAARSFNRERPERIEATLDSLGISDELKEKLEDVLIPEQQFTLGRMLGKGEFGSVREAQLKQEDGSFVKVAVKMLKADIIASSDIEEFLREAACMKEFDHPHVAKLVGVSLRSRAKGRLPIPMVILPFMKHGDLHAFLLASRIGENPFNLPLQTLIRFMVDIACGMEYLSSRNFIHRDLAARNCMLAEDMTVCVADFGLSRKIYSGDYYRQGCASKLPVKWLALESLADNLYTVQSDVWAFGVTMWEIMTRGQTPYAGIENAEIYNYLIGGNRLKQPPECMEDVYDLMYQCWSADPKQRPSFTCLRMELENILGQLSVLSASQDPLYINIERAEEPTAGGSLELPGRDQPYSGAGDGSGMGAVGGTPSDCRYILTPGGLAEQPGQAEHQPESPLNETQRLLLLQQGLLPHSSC
Assay: not given
The conditions noted are these: cited from earlier work.
As for `Nc1nc(Nc2ccc3c(c2)CC[C@@H](N2CCCC2)CC3)nn1-c1cc2c(nn1)-c1ccccc1CCC2` [BGB324], the IC50 is 1400 nM.

Another assay deals with T2, hAxl/IFN-γR1 (Homo sapiens, UniProt P30530).
T2 construct: containing human Axl extracellular domains and transmembrane and intracellular domains of human IFN-γR1; human IFN-γR1 transmembrane and intracellular domains (fusion partner); expressed in transfected cells
T2 sequence (P30530 26-451 limits assumed): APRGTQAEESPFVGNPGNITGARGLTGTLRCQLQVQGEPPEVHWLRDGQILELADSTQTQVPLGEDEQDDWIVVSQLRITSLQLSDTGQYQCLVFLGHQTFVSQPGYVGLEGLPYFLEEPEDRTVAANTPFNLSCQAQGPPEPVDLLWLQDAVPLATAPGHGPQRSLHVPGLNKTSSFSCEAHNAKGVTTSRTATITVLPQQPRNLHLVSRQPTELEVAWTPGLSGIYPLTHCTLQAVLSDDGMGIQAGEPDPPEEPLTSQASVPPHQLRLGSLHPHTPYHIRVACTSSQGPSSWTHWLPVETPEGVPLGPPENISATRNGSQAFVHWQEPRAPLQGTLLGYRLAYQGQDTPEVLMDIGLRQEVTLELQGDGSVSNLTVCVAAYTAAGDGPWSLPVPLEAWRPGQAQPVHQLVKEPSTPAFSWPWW
The experiment in a line: hAxl/IFN-γR1 CHO reporter cell line assay, Gas6-induced activation (pSTAT1 immunoblot). The format is cell-based.
Settings: not given
The procedure: Stable HEK 293 cells secreting human Gas6 (clone 7.4.1) were allowed to achieve 70% confluence in a 10-cm plate. The complete medium with 10% FBS was then changed into serum free media in the presence of 10 µg/mL vitamin K1 (Phytonadione injectable emulsion from Hospira). After 72 hours, the Gas6 conditioned medium was collected, and validated for the presence of Gas6 and γ-carboxylation (by immunoblot) and activity of Gas6 (via activation of pSTAT1 in hAxl/γR1 cells).
Stable hAxl/IFN-γR1 CHO reporter cell lines (containing human Axl extracellular domains and transmembrane and intracellular domains of human IFN-γR1) were serum starved for 5 hrs±small molecule inhibitors and then stimulated with human Gas6 conditioned media±small molecule inhibitors for 30 minutes. For H1299 human non-small cell lung carcinoma and MDA-MB-231 human breast adenocarcinoma cell lines, the cells were serum starved overnight±small molecule inhibitors and stimulated with human Gas6 conditioned media±small molecule inhibitors for 30 minutes. Whole cell lysates of hAxl/IFN-γR1, H1299 and MDA-MB-231 cells were prepared using HNTG buffer (20 mM HEPES, pH 7.5, 150 mM NaCl, 10% glycerol, 1% Triton X-100, 1 mM PMSF, 1 mM Na3VO4, 10 mM Na2MoO4, 1 mM EDTA, 10 mM NaF and 20 μg/mL aprotinin). The resulting lysates were resolved on SDS-PAGE gel and immunoblotted with respective antibodies.
Immunoblot data were obtained within a linear range of exposure, and intensities were quantified by ImageJ. The levels of hAxl/IFN-γR1 cells lines activation were measured by pSTAT1 whereas the levels of H1299 and MDA-MB-231 cell lines activation were measured by pAxl signal intensities. Blots were normalized to intensities of respective β-actin or GAPDH protein loading controls. The levels of pSTAT1 or pAxl activation induced by Gas6±small molecule inhibitors were plotted as a fold of enhancement or reduction over intensities induced by Gas6 alone.
Consider `Cc1cc(CSc2ccccc2C(=O)N2CCN(Cc3nc4ccccc4s3)CC2)no1` [1F], for which the remaining activity at 10 µM was 20%.

`Cc1cc(CSc2ccccc2C(=O)NCCNc2ccc(C(F)(F)F)cc2C#N)on1` [Compound 8]: the remaining activity at 10 µM is 9%.

Take `Cc1cc(CSc2ccccc2C(=O)N2CCN(Cc3nc4cc(Cl)ccc4s3)CC2)no1` [Compound 21]: the remaining activity at 10 µM amounted to 8%.

On to `Cc1cc(CSc2ccccc2C(=O)N2CCN(CC(=O)Nc3ccccc3Cl)CC2)no1` [1N], for which the remaining activity at 10 µM came to 30%.

In the case of `Cc1cc(CSc2ccccc2C(=O)NCCNc2ncccn2)on1` [Compound 27], the remaining activity at 10 µM worked out at 16%.

`Cc1cc(CSc2nc(C)cc(C)c2C(=O)NCCNc2ccc(C(F)(F)F)cc2[N+](=O)[O-])on1` [Compound 4]: the remaining activity at 10 µM came to 83%.

Turning to `O=C(c1ccccc1SCc1ccsc1)N1CCN(Cc2ccncc2)CC1` [1H], the remaining activity at 10 µM worked out at 20%.

`O=C(c1ccccc1SCc1cccs1)N1CCN(Cc2ccncc2)CC1` [1O]: the remaining activity at 10 µM came to 40%.

On to `Cc1cc(CSc2ccccc2C(=O)N2CCN(CC(=O)NCc3ccc(Cl)cc3)CC2)no1` [Compound 26], for which the remaining activity at 10 µM was determined as 54%.

For `Cc1cc(CSc2ncccc2C(=O)N2CCN(CC(=O)Nc3ccccc3Cl)CC2)no1` [1L], the remaining activity at 10 µM was found to be 20%.

Turning to `Cc1cc(CSc2ccccc2C(=O)N2CCN(Cc3nc4ccccc4o3)CC2)no1` [Compound 19], the remaining activity at 10 µM turned out to be 41%.

For `Cc1cc(CSc2ncccc2C(=O)N2CCN(CC(=O)Nc3cccc(C)c3C)CC2)no1` [1K], the remaining activity at 10 µM was 80%.

For the molecule `Cc1cc(CSc2ccccc2C(=O)NCCNc2nc3ccccc3s2)on1` [Compound 5], the remaining activity at 10 µM is 13%.

Consider `Cc1cc(CSc2ccccc2C(=O)NCCNc2nc3ccccc3o2)on1` [Compound 9], for which the remaining activity at 10 µM came to 20%.

As for `Cc1nc(COc2ccccc2C(=O)N2CCN(Cc3ccncc3)CC2)cs1` [1P], the remaining activity at 10 µM amounted to 100%.

In the case of `Cc1cc(CSc2ccccc2C(=O)NCCNc2ccccc2[N+](=O)[O-])on1` [1R], the remaining activity at 10 µM stood at 40%.

Turning to `Cc1ccc(NC(=O)CN2CCN(C(=O)c3ccccc3SCc3cc(C)on3)CC2)c(Cl)c1` [Compound 25], the remaining activity at 10 µM amounted to 27%.

Consider `Cc1nc(CSc2ccccc2C(=O)N2CCN(Cc3ccccc3)CC2)cs1` [1E], for which the remaining activity at 10 µM is 60%.

With `Cc1noc(C)c1CSc1ccccc1C(=O)N1CCN(Cc2cccs2)CC1` [1M], the remaining activity at 10 µM turned out to be 20%.

Consider `Cc1cc(CSc2ccccc2C(=O)NCCNc2ccc(C#N)cc2)on1` [Compound 12], for which the remaining activity at 10 µM came to 16%.

On to `Cc1cc(CSc2ccccc2C(=O)N2CCN(Cc3nc4cc(C(F)(F)F)ccc4s3)CC2)no1` [Compound 23], for which the remaining activity at 10 µM was 8%.

As for `Cc1cc(CSc2ccccc2C(=O)NCCNc2ncc(C(F)(F)F)cc2Cl)on1` [Compound 28], the remaining activity at 10 µM turned out to be 6%.

As for `COc1ccc2nc(CN3CCN(C(=O)c4ccccc4SCc4cc(C)on4)CC3)sc2c1` [Compound 24], the remaining activity at 10 µM was 90%.

`Cc1cc(CSc2ccccc2C(=O)N2CCN(Cc3nc4cccc(Cl)c4o3)CC2)no1` [Compound 20]: the remaining activity at 10 µM is 55%.

Take `Cc1cc(CSc2ccccc2C(=O)N2CCN(CC(=O)Nc3ccc(Cl)cc3)CC2)no1` [Compound 17]: the remaining activity at 10 µM was determined as 79%.

For `Cc1cc(CSc2ccccc2C(=O)NCCNc2nc(C(F)(F)F)cs2)on1` [Compound 13], the remaining activity at 10 µM came out at 6%.

With `Cc1cc(CSc2ncncc2C(=O)NCCNc2ccc(C(F)(F)F)cc2[N+](=O)[O-])on1` [Compound 3], the remaining activity at 10 µM came out at 26%.

On to `Cc1cc(CSc2ccccc2C(=O)N2CCN(CC(=O)Nc3ccccc3F)CC2)no1` [Compound 16], for which the remaining activity at 10 µM is 109%.

Consider `Cc1cc(CSc2ccccc2C(=O)NCCNc2nc3cc(C(F)(F)F)ccc3s2)on1` [Compound 7], for which the remaining activity at 10 µM was 33%.

As to `Cc1cc(CSc2ncccc2C(=O)NCCNc2ccc(C(F)(F)F)cc2[N+](=O)[O-])on1` [Compound 2], the remaining activity at 10 µM stood at 57%.

For the molecule `Cc1cc(CSc2ccccc2C(=O)N2CCN(Cc3nc4ccccc4[nH]3)CC2)no1` [Compound 15], the remaining activity at 10 µM was 141%.

As for `Cc1cc(CSc2ccccc2C(=O)NCCNc2ccc(F)cc2C#N)on1` [Compound 10], the remaining activity at 10 µM was found to be 14%.

With `Cc1cc(CSc2ccccc2C(=O)N2CCN(CC(=O)Nc3ccc(F)cc3)CC2)no1` [Compound 14], the remaining activity at 10 µM was 110%.

Regarding `Cc1cc(CSc2ccccc2C(=O)NCCNc2ccc(C(F)(F)F)cn2)on1` [Compound 6], the remaining activity at 10 µM is 6%.

On to `Cc1cc(CSc2ccccc2C(=O)N2CCN(CC(=O)N3CCOCC3)CC2)no1` [1B], for which the remaining activity at 10 µM came to 70%.

Consider `Cc1cc(CSc2ccccc2C(=O)N2CCN(Cc3ccc4c(c3)CCO4)CC2)no1` [1A], for which the remaining activity at 10 µM is 60%.

`CCN(C(=O)CN1CCN(C(=O)c2ccccc2SCc2cc(C)on2)CC1)c1ccc(F)cc1` [Compound 22]: the remaining activity at 10 µM amounted to 108%.

As to `Cc1cc(CSc2ccccc2C(=O)NCCNc2ccc(C(F)(F)F)c(C#N)c2)on1` [Compound 11], the remaining activity at 10 µM worked out at 29%.

With `Cc1cc(CSc2ccccc2C(=O)N2CCN(CC(=O)Nc3ccc(Cl)cn3)CC2)no1` [Compound 18], the remaining activity at 10 µM amounted to 46%.

As to `Cc1cc(CSc2ccccc2C(=O)N2CCN(Cc3ccc(C#N)cc3)CC2)no1` [1C], the remaining activity at 10 µM was found to be 60%.

Regarding `Cc1cc(CSc2ccccc2C(=O)N2CCN(Cc3ccncc3)CC2)no1` [1D], the remaining activity at 10 µM was 50%.

The IC50 is the concentration needed to halve the response being measured.
